Drawing on patent US9193719B2, “1,2,4-triazol-5-ones and analogs exhibiting anti-cancer and anti-proliferative activities” (Deciphera Pharmaceuticals, LLC, priority 2013, dated 2015), this text covers IC50 for three molecules.

Each structure is given as a SMILES string.

Assay [1] concerns the target T1, unphosphorylated PDGFRβ kinase (uPDGFRβ, Seq. ID No. 3) (Homo sapiens, UniProt P09619).
T1 construct: purchased DeCode
The assay can be described thus: uPDGFRβ kinase enzymatic assay (pyruvate kinase/lactate dehydrogenase coupled). Type of assay: biochemical. Particulars: ATP 500 μM, rate 1.5 to 2.5 h. The procedure:
Unphosphorylated PDGFRβ (uPDGFRβ) Kinase (Seq. ID No. 3) Assay
Activity of unphosphorylated PDGFRβ kinase (uPDGFRβ, Seq. ID No. 3) was determined by following the production of ADP from the kinase reaction with ATP and poly E4Y as substrates through coupling with the pyruvate kinase/lactate dehydrogenase system (e.g., Schindler et al. Science (2000) 289: 1938-1942). In this assay, the oxidation of NADH (thus the decrease at A340 nm) was continuously monitored spectrophometrically. The reaction mixture (100 μL) contained PDGFRβ (DeCode, 15.7 nM), polyE4Y (2.5 mg/mL), MgCl2 (10 mM), pyruvate kinase (4 units), lactate dehydrogenase (0.7 units), phosphoenol pyruvate (1 mM) and NADH (0.28 mM) and ATP (500 μM) in a 90 mM Tris buffer containing 0.2% octyl-glucoside and 1% DMSO, at pH 7.5. The inhibition reaction was started by mixing serial diluted test compound with the above reaction mixture. The absorption at 340 nm was monitored continuously for 4 h at 30° C. on a Polarstar Optima or Synergy 2 plate reader. The reaction rate was calculated using the 1.5 to 2.5 h time frame. Percent inhibition was obtained by comparison of reaction rate with that of a control (i.e. with no test compound). IC50 values were calculated from a series of percent inhibition values determined at a range of inhibitor concentrations using software routines as implemented in the GraphPad Prism software package.

Assay [2] has as its target T2, unphosphorylated c-FMS kinase (uFMS, Seq. ID no. 1) (Homo sapiens, UniProt P07333).
T2 construct: purchased Millipore
T2 sequence (P07333 538-972): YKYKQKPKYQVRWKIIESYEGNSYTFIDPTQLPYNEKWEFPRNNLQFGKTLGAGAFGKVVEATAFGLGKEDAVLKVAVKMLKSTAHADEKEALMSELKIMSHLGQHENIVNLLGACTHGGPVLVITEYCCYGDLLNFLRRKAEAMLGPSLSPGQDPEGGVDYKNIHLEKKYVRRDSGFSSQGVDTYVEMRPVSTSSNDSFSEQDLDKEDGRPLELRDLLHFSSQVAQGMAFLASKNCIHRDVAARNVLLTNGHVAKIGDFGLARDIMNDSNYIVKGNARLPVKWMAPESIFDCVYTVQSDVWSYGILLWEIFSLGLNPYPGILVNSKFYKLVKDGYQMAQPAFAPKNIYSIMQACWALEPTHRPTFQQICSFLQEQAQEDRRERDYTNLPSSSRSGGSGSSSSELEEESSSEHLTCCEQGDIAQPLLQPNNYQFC
Briefly: uFMS kinase enzymatic assay (pyruvate kinase/lactate dehydrogenase coupled). In kind it is biochemical. Particulars: ATP 500 μM, rate 3 to 4 h. The procedure:
uFMS Kinase (Seq. ID No. 1) Assay
Activity of unphosphorylated c-FMS kinase (uFMS, Seq. ID no. 1) was determined by following the production of ADP from the FMS kinase reaction with ATP and poly E4Y as substrates through coupling with the pyruvate kinase/lactate dehydrogenase system (e.g., Schindler et al. Science (2000) 289: 1938-1942). In this assay, the oxidation of NADH (thus the decrease at A340 nm) was continuously monitored spectrophometrically. The reaction mixture (100 μL) contained FMS (purchased from Millipore) (10 nM), polyE4Y (1 mg/mL), MgCl2 (10 mM), pyruvate kinase (4 units), lactate dehydrogenase (0.7 units), phosphoenol pyruvate (1 mM), NADH (0.28 mM) and ATP (500 μM) in 90 mM Tris buffer containing 0.2% octyl-glucoside and 1% DMSO, pH 7.5. The inhibition reaction was started by mixing serial diluted test compound with the above reaction mixture. The absorption at 340 nm was monitored continuously for 4 hours at 30° C. on Synergy 2 plate reader. The reaction rate was calculated using the 3 to 4 h time frame. Percent inhibition was obtained by comparison of reaction rate with that of a control (i.e. in the absence of test compound). IC50 values were calculated from a series of percent inhibition values determined at a range of inhibitor concentrations using software routines as implemented in the GraphPad Prism software package.

The subject of assay [3] is osteoclast precursors. Briefly: Osteoclast tartrate-resistant acid phosphatase assay. The following applies: RANKL and M-CSF, 7-14 days, tartrate-resistant acid phosphatase activity. Type of assay: cell-based. The procedure: Osteoclast Tartrate-Resistant Acid Phosphatase Assay
A serial dilution of test compound was dispensed into a 384-well black clear bottom plate (Nalge Nunc International, Rochester, N.Y.). Compound was diluted by the addition of DMEM media supplemented with 10% characterized fetal bovine serum (Invitrogen, Carlsbad, Calif.). Diluted compound was transferred to a 384-well black clear bottom plate. Two-thousand five hundred osteoclast precursors (Lonza, Walkersville, Md.) were added per well in growth media containing Receptor Activator of Nuclear Factor Kappa-beta ligand (RANKL) and M-CSF (R&D Systems, Minneapolis, Minn.). Plates were incubated for 7-14 days at 37 degrees Celsius, 5% CO2, and 95% humidity to allow differentiation of osteoclast precursors. At the end of the incubation period, 10 μL of supernatant from each well was transferred to a clear 384-well plate. Tartrate-resistant acid phosphatase activity in the supernatant samples was determined using an acid phosphatase assay kit (Sigma, St. Louis, Mo.). Absorbance was measured at 550 nm using a plate reader. Data was analyzed using Prism software (Graphpad, San Diego, Calif.) to calculate IC50 values.

Assay [4] relates to M-NFS-60 cells. The assay can be described thus: M-NFS-60 cell proliferation assay (resazurin). Type of assay: cell-based. The following applies: 67 h incubation. The procedure: M-NFS-60 cells (catalog #CRL-1838) were obtained from the American Type Culture Collection (ATCC, Manassas, Va.). Briefly, cells were grown in suspension in RPMI 1640 medium supplemented with 10% characterized fetal bovine serum (Invitrogen, Carlsbad, Calif.), 0.05 mM 2-mercaptoethanol, and 20 ng/mL mouse recombinant macrophage colony stimulating factor (M-CSF) at 37° C., 5% CO2, and 95% humidity. Cells were allowed to expand until reaching saturation at which point they were subcultured or harvested for assay use.
M-NFS-60 Cell Proliferation Assay
A serial dilution of test compound was dispensed into a 384-well black clear bottom plate (Corning, Corning, N.Y.). Two thousand five hundred cells were added per well in 50 μL complete growth medium. Plates were incubated for 67 h at 37° C., 5% CO2, and 95% humidity. At the end of the incubation period 10 μL of a 440 μM solution of resazurin (Sigma, St. Louis, Mo.) in PBS was added to each well and incubated for an additional 5 h at 37° C., 5% CO2, and 95% humidity. Plates were read on a Synergy2 reader (Biotek, Winooski, Vt.) using an excitation of 540 nm and an emission of 600 nm. IC50 values were calculated from a series of percent inhibition values determined at a range of inhibitor concentrations using software routines as implemented in the GraphPad Prism software package.
(In general: The colour change of resazurin is a common sign of viable cells or microbes.)

Assay [5] has as its target T3, unphosphorylated c-KIT kinase (uKIT, Seq. ID no. 2) (Homo sapiens, UniProt P10721).
T3 construct: uKit with N-terminal GST fusion used for screening
Briefly: uKit kinase enzymatic assay (pyruvate kinase/lactate dehydrogenase coupled). In kind it is biochemical. The following applies: ATP 2000 μM, rate 3 to 4 h. The procedure:
uKit Kinase (Seq. ID No. 2) Assay
Activity of unphosphorylated c-KIT kinase (uKIT, Seq. ID no. 2) was determined by following the production of ADP from the KIT kinase reaction with ATP and poly E4Y as substrates through coupling with the pyruvate kinase/lactate dehydrogenase system (e.g., Schindler et al. Science (2000) 289: 1938-1942). In this assay, the oxidation of NADH (thus the decrease at A340 nm) was continuously monitored spectrophometrically. The reaction mixture (100 μl) contained unphosphorylated KIT (12 nM), polyE4Y (1 mg/mL), MgCl2 (10 mM), pyruvate kinase (4 units), lactate dehydrogenase (0.7 units), phosphoenol pyruvate (1 mM), and NADH (0.28 mM) and ATP (2000 μM) in 90 mM Tris buffer containing 0.2% octyl-glucoside and 1% DMSO, pH 7.5. The inhibition reaction was started by mixing serial diluted test compound with the above reaction mixture. The absorption at 340 nm was monitored continuously for 4 hours at 30° C. on Synergy 2 plate reader (BioTech). Reaction rates around 3 to 4 h time frame were used to calculate % inhibitions, from which IC50 values were generated.

T3 sequence (P10721 with tags, fused parts or gaps): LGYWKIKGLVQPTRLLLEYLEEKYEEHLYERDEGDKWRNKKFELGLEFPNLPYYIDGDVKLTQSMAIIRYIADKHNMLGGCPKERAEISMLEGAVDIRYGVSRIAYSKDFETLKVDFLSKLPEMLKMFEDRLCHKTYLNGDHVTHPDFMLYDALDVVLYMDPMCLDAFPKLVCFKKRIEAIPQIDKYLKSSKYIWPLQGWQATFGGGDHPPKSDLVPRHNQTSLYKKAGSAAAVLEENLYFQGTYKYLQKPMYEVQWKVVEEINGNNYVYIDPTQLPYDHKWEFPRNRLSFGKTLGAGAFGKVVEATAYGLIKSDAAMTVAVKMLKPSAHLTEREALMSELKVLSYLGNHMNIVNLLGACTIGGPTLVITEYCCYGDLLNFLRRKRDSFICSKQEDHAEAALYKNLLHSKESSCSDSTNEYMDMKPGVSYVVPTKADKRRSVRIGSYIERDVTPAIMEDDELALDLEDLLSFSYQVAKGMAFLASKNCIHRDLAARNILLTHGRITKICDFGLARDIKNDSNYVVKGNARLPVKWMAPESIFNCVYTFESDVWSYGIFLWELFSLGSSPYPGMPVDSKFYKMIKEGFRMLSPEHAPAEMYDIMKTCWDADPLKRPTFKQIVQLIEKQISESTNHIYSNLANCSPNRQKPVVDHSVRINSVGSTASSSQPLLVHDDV
T1 sequence (P09619 557-1106): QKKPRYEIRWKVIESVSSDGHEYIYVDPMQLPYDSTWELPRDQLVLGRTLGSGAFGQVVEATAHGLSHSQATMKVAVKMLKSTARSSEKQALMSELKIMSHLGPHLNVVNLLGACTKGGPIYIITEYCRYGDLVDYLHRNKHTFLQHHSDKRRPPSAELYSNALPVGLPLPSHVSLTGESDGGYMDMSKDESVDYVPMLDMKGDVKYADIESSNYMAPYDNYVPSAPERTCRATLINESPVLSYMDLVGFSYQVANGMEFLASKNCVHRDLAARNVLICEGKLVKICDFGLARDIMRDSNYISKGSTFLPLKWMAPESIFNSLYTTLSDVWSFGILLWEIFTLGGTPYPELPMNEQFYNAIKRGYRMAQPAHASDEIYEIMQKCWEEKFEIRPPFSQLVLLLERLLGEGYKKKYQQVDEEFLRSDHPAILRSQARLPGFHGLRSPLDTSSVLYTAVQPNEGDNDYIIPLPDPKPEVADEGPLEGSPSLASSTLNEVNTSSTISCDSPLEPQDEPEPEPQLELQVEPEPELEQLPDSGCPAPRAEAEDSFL

In the case of `Cc1nc(-n2nc(C(C)(C)CO)[nH]c2=O)ccc1Oc1ccnc(-c2cnn(C)c2)c1` [Example 42, 3-(1-hydroxy-2-methylpropan-2-yl)-1-(6-methyl-5-((2-(1-methyl-1H-pyrazol-4-yl)pyridin-4-yl)oxy)pyridin-2-yl)-1H-1,2,4-triazol-5(4H)-one], the IC50 in assay [1] was above 1000 nM; in assay [2], 10 to 100 nM; in assay [3] it was 100 to 1000 nM; in assay [4] it was above 1000 nM; in assay [5], above 1000 nM.
For `COC(C)(C)c1nn(-c2cc(C)c(Oc3ccnc(NC(C)=O)c3)cn2)c(=O)[nH]1` [Example 44, N-(4((6-(3-(2-methoxypropan-2-yl)-5-oxo-4,5-dihydro-1H-1,2,4-triazol-1-yl)-4-methylpyridin-3-yl)oxy)pyridin-2-yl)acetamide], the IC50 in assay [1], in assay [2], in assay [3], in assay [4] and in assay [5] was 100 to 1000 nM in each case.
Turning to `Cc1nc(-n2nc(C(C)(C)C)[nH]c2=O)ccc1Oc1ccnc(NC(=O)C2CC2)c1` [Example 45, N-(4-((6-(3-(tert-butyl)-5-oxo-4,5-dihydro-1H-1,2,4-triazol-1-yl)-2-methylpyridin-3-yl)oxy)pyridin-2-yl)cyclopropanecarboxamide], the IC50 in assay [1] was above 1000 nM; in assay [2], 100 to 1000 nM; in assay [3], 10 to 100 nM; in assay [4], 100 to 1000 nM; in assay [5], above 1000 nM.

A word on the IC50: it is the concentration that gives 50% inhibition.
